Measured values: patent US20260008760A1, “DIPEPTIDYL PEPTIDASE 1 INHIBITORS AND USES THEREOF” (Insmed Incorporated, priority 2024, published 2026)

Legend:
human DPP1 enzyme = human DPP1 enzyme (Homo sapiens, UniProt P53634); assay: Human DPP1 Enzyme IC50 Assay; assay type: biochemical; parameters: was first proteolytically processed into its mature form using recombinant human cathepsin L; purchased R&D Systems; conditions: activated recombinant human DPP1, 400 μM H-Gly-Arg-AMC, 10 minutes pre-incubation at 37° C., pH 6.0; average of n runs; read-out: Avg. IC50 (Human DPP1 enzyme IC50 value ranges)
Description: Example 97. Human DPP1 Enzyme IC50 Assay
Recombinant human DPP1 enzyme (R&D Systems; Minneapolis, MN) was first proteolytically processed into its mature form using recombinant human cathepsin L (R&D Systems) in a buffer consisting of 20 mM citric acid pH 4.5, 150 mM NaCl, 1 mM EDTA and 10 mM DTT. Test articles were applied to activated human DPP1 enzyme in Assay Buffer (25 mM MES pH 6.0, 50 mM NaCl, 5 mM DTT) in a total reaction volume of 125 μL. 25 μL of compound in Assay Buffer plus 5% DMSO was first added to 50 μL of activated human DPP1 enzyme at a concentration of 1 ng/μL and allowed to pre-incubate for 10 minutes at 37° C. after which 50 μL of 1000 μM H-Gly-Arg-AMC substrate (Bachem; St. Torrance, CA) was added, giving final substrate concentration of 400 μM and a final DMSO concentration of 1%. Substrate cleavage was measured for 90 minutes at 37° C., with fluorescence at Excitation/Emission 350/450 nm measured every 5 minutes. DPP1 concentration was interpolated based on its activity relative to a standard curve of activated human recombinant DPP1 enzyme. IC50 values for each compound were calculated via the XLFit (IDBS Version 5.3.1.3) Add-On to Microsoft Excel using the four parameter fit equation y={A+[(B−A)]/[1+((C/x)^D)]}, which appears as equation number 205 (4 Parameter Logistic Model or Sigmoidal Dose-Response Model) in XLFit. Default constraints were used for each Parameter. IC50 was defined as the compound concentration at which 50% of enzyme activity was inhibited when compared to the no-compound control.

DPP1 in HL-60 cells = DPP1 in HL-60 cells (Homo sapiens, UniProt P53634); assay: DPP1 Cell IC50 assay; assay type: cell-based; parameters: host or cells: HL-60 cells; conditions: 60 min pre-incubation, H-Gly-Phe-AFC substrate, average of n runs, read-out: Avg. IC50 (DPP1 Cell IC50 value ranges)
Description: Example 99. DPP1 Cell IC50 assay
HL-60 cells (ATCC; Manassas, VA) were maintained in RPMI-1640 supplemented with 20% heat-inactivated FBS and 1× Antibiotic Antimycotic (Cytiva; Marlborough, MA). Media was changed every three to four days and cells were not allowed to exceed 1×10^6 cells per mL. Prior to assay, cells were collected by centrifugation at 500 rcf for 3 minutes, resuspended in PBS and counted. Cells were diluted in PBS to a concentration of 5×10^5 live cells per mL and transferred to black 96-well plates for assay, 60 μL per well. Test articles were diluted in PBS plus 0.5% DMSO, and 20 μL was added to each assay well. Compound was allowed to pre-incubate with cells with gentle shaking at 100 rpm for 60 minutes at 37° C. in a cell culture incubator maintained at 5% CO2, after which 20 μL of 500 μM H-Gly-Phe-AFC substrate (MP Biomedicals; Solon, OH) was added to each well. Plates were returned to the incubator with shaking at 100 rpm for 30 minutes, after which fluorescence was measured at Excitation/Emission 400/505 nm. % Inhibition was calculated from RFU values compared to control cell wells that received only PBS plus 0.5% DMSO. IC50 values for each compound were calculated via the XLFit (IDBS Version 5.3.1.3) Add-On to Microsoft Excel using the four parameter fit equation y=(A+((B−A)/(1+((C/x)^D)))), which appears as equation number 205 (4 Parameter Logistic Model or Sigmoidal Dose-Response Model) in XLFit. IC50 was defined as the compound concentration at which 50% of enzyme activity was inhibited when compared to the no-compound control.

Sequence of human DPP1 enzyme (P53634 25-134 limits assumed): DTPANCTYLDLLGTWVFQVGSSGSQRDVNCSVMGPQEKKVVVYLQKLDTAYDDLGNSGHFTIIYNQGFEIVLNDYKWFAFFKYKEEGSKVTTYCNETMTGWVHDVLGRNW
Sequence of human DPP1 enzyme (P53634 231-394 limits assumed): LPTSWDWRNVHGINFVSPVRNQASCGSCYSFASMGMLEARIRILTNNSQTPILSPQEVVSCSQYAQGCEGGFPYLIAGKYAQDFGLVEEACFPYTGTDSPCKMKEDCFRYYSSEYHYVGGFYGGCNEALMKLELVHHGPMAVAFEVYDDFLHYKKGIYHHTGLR
Sequence of human DPP1 enzyme (P53634 395-463 limits assumed): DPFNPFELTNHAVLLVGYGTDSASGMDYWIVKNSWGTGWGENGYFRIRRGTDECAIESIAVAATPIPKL
Sequence of DPP1 in HL-60 cells (P53634 25-463): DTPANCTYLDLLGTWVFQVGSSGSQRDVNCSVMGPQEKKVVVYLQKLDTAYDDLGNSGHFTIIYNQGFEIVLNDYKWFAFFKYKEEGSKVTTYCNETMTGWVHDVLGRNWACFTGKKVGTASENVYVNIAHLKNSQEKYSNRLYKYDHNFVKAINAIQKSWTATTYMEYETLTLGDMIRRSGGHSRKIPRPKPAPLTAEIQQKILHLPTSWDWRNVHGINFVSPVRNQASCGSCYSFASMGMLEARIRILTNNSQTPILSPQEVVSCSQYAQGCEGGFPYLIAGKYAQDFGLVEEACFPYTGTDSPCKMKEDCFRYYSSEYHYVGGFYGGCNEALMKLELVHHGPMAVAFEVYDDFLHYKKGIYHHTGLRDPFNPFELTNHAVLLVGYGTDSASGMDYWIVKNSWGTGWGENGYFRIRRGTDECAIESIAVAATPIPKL

Row | IC50 (human DPP1 enzyme) | IC50 (DPP1 in HL-60 cells) | Compound
1 | > 15 nM | > 2.5 nM | C[C@@H]1NC[C@@H](C(=O)N[C@H](C#N)Cc2cnc(-c3ccc4c(F)nn(C)c4c3)s2)OC[C@@H]1O [Compound A171]
2 | > 15 nM | > 2.5 nM | Cc1nc(C)c2cc(-c3ccc(C[C@@H](C#N)NC(=O)[C@@H]4CNCCCO4)cc3)cn2c1C [Compound A60]
3 | > 15 nM |  | N#C[C@H](Cc1ccc(-c2ccnc3nc(O)oc23)cc1)NC(=O)[C@@H]1CNCCCO1 [Compound A13, (2S)—N-[(1S)-1-cyano-2-(4-{2-hydroxy-[1,3]oxazolo[4,5-b]pyridin-7-yl}phenyl)ethyl]-1,4-oxazepane-2-carboxamide]
4 | > 15 nM | > 2.5 nM | CN1C(=O)C2(CCN(C3COC3)CC2)c2cc(-c3ccc(C[C@@H](C#N)NC(=O)[C@@H]4CNCCCO4)cc3)ccc21 [Compound 29, (2S)—N-[(1S)-1-cyano-2-{4-[1-methyl-1′-(oxetan-3-yl)-2-oxospiro[indole-3,4′-piperidin]-5-yl]phenyl}ethyl]-1,4-oxazepane-2-carboxamide]
5 | 5 to 15 nM | > 2.5 nM | CO[C@H]1CCO[C@H](C(=O)N[C@H](C#N)Cc2ccc(-c3ccc4c(n3)CCCN4)cc2F)CNC1 [Compound A49, (2S,6S)—N-[(1S)-1-cyano-2-[2-fluoro-4-(5,6,7,8-tetrahydro-1,5-naphthyridin-2-yl)phenyl]ethyl]-6-methoxy-1,4-oxazocane-2-carboxamide]
6 | 5 to 15 nM |  | CO[C@H]1CCO[C@H](C(=O)N[C@H](C#N)Cc2cnc(-c3ccc4c(F)nn(C)c4c3)s2)CNC1 [Compound A170]
7 | 5 to 15 nM | > 2.5 nM | N#C[C@H](Cc1ccc(-c2ccc3c(c2)[C@@]2(CCN(C4COC4)C2)COC3)cc1)NC(=O)[C@@H]1CNCCCO1 [Compound I6]
8 | 5 to 15 nM | > 2.5 nM | N#C[C@H](Cc1ccc(-c2ccc3c(c2)[C@@]2(CCCN(C4CCCCC4)C2)CS3)cc1)NC(=O)[C@@H]1CNCCCO1 [Compound I9]
9 | > 15 nM |  | N#Cc1ccc(C23CC(C[C@@H](C#N)NC(=O)[C@@H]4CNCCCO4)(C2)C3)cc1 [Compound 2]
10 | > 15 nM | > 2.5 nM | CO[C@H]1CCO[C@H](C(=O)N[C@H](C#N)Cc2cc3cc(-c4cc5c(C)nc(C)cn5c4)ccc3s2)CNC1 (single isomer, unassigned) [Compound A45]
11 | > 15 nM | > 2.5 nM | N#C[C@H](Cc1ccc(-c2cc3c(F)nccn3c2)cc1)NC(=O)[C@@H]1CNCCCO1 [Compound A66]
12 | > 15 nM | > 2.5 nM | N#C[C@H](Cc1ccc(-c2cnn([C@@H]3CCOC3)c2)cc1)NC(=O)[C@@H]1CNCCCO1 [Compound D4, (2S)—N-[(1S)-1-cyano-2-(4-{1-[(3R)-oxolan-3-yl]pyrazol-4-yl}phenyl)ethyl]-1,4-oxazepane-2-carboxamide]
13 | < 5 nM |  | CO[C@H]1CCO[C@H](C(=O)N[C@H](C#N)Cc2ccc(-c3ccc4cnn(C5CCN(C)CC5)c4c3)cc2F)CNC1 [Compound H1]
14 | > 15 nM | 1 to 2.5 nM | Cn1c(=O)oc2ccc3c(c21)COc1cc(C[C@@H](C#N)NC(=O)[C@@H]2CNCCCO2)c(F)cc1-3 [Compound C2-A]
15 | < 5 nM | < 1 nM | CO[C@@H]1CCNC[C@@H](C(=O)N[C@H](C#N)Cc2ccc(-c3ccc4cnn(C)c4c3)cc2F)OC1 [Compound H7, (2S,7R)—N-[(1S)-1-cyano-2-[2-fluoro-4-(1-methylindazol-6-yl)phenyl]ethyl]-7-methoxy-1,4-oxazocane-2-carboxamide]
16 | > 15 nM |  | CN1Cc2cc(F)ccc2-c2ccc(C[C@@H](C#N)NC(=O)[C@@H]3CNCCCO3)cc2C1=O [Compound B3, (2S)—N-[(1S)-1-cyano-2-{13-fluoro-9-methyl-8-oxo-9-azatricyclo[9.4.0.0^{2,7}1]pentadeca-1(11),2,4,6,12,14-hexaen-5-yl}ethyl]-1,4-oxazepane-2-carboxamide]

Row | IC50 (human DPP1 enzyme) | IC50 (DPP1 in HL-60 cells) | Compound
17 | > 15 nM | > 2.5 nM | COc1ccc(-c2ccc(C[C@@H](C#N)NC(=O)[C@@H]3CNCCCO3)cc2)cc1-n1cnnc1 [Compound 31, (2S)—N-[(1S)-1-cyano-2-[4′-methoxy-3′-(1,2,4-triazol-4-yl)-[1,1′-biphenyl]-4-yl]ethyl]-1,4-oxazepane-2-carboxamide]
18 | < 5 nM | 1 to 2.5 nM | Cn1nnc2cc3c(cc21)-c1cc(F)c(C[C@@H](C#N)NC(=O)[C@@H]2CNCCCO2)cc1OC3 [Compound C34]
19 | 5 to 15 nM | 1 to 2.5 nM | CO[C@H]1CCO[C@H](C(=O)N[C@H](C#N)Cc2ccc(-c3ccc4c(F)nn(C)c4c3)cc2F)CNC1 [Compound A165]
20 | 5 to 15 nM | 1 to 2.5 nM | C[C@@H]1NC[C@@H](C(=O)N[C@H](C#N)Cc2ccc(-c3ccc4c(c3)CCC(=O)N4C)cc2F)OC[C@@H]1O [Compound A154]
21 | < 5 nM | 1 to 2.5 nM | Cn1c(=O)oc2cc3c(cc21)-c1cc(F)c(C[C@@H](C#N)NC(=O)[C@@H]2CNCCCO2)cc1OC3 [Compound C1-B]
22 | > 15 nM |  | N#Cc1ccc(C23CCC(C[C@@H](C#N)NC(=O)[C@@H]4CNCCCO4)(CC2)CC3)cc1 [Compound 1]
23 | > 15 nM |  | Cn1c(=O)oc2ccc3c(c21)COc1cc(C[C@H](C#N)NC(=O)[C@@H]2CNCCCO2)c(F)cc1-3 [Compound C2-B]
24 | > 15 nM |  | N#C[C@H](Cc1ccc(-c2cc3c(O)ccnn3c2)cc1)NC(=O)[C@@H]1CNCCCO1 [Compound A15, (S)—N—((S)-1-cyano-2-(4-(4-hydroxypyrrolo[1,2-b]pyridazin-6-yl)phenyl)ethyl)-1,4-oxazepane-2-carboxamide]
25 | > 15 nM |  | N#Cc1ccc2c(c1)COc1cc(C[C@@H](C#N)NC(=O)[C@@H]3CNCCCCO3)c(F)cc1-2 (single isomer, unassigned) [Compound B8]
26 | > 15 nM |  | N#C[C@H](Cc1ccc(-c2cnc3[nH]ccc3n2)cc1)NC(=O)[C@@H]1CNCCCO1 [Compound A16, (2S)—N-[(1S)-1-cyano-2-(4-{5H-pyrrolo[2,3-b]pyrazin-2-yl}phenyl)ethyl]-1,4-oxazepane-2-carboxamide]
27 | > 15 nM |  | Cn1nc(F)c2ccc(-c3ncc(C[C@@H](C#N)NC(=O)[C@@H]4CNCC[C@@H](F)CO4)s3)cc21 [Compound A172]
28 | 5 to 15 nM |  | CO[C@H]1CCO[C@H](C(=O)N[C@H](C#N)Cc2ccc(-c3ccc4cnn(C5CCN(C6COC6)CC5)c4c3)cc2F)CNC1 [Compound H2]
29 | > 15 nM |  | N#C[C@H](Cc1ccc(-c2cncc3[nH]c(=O)[nH]c23)cc1)NC(=O)[C@@H]1CNCCCO1 [Compound A17, (2S)—N-[(1S)-1-cyano-2-(4-{2-oxo-1H,3H-imidazo[4,5-c]pyridin-7-yl}phenyl)ethyl]-1,4-oxazepane-2-carboxamide]
30 | > 15 nM |  | N#C[C@H](Cc1ccc(C23CC(C#N)(C2)C3)cc1)NC(=O)[C@@H]1CNCCCO1 [Compound 3]
31 | > 15 nM |  | CN1CCC2(CCc3ccc4c(c32)COc2cc(CC(C#N)NC(=O)[C@@H]3CNCCCO3)c(F)cc2-4)CC1 (stereo partly drawn) [Compound C4, (2S)—N-(1-cyano-2-{8-fluoro-1′-methyl-2,4-dihydro-1H-spiro[indeno[4,5-c]chromene-3,4′-piperidin]-7-yl}ethyl)-1,4-oxazepane-2-carboxamide]

Row | Compound | IC50 (human DPP1 enzyme) | IC50 (DPP1 in HL-60 cells)
32 | CCCCOCCn1c(=O)oc2ccc(-c3ccc(C[C@@H](C#N)NC(=O)[C@@H]4CNC[C@@H](OC)CCO4)cc3)cc21 [Compound F2, (2S,6S)—N-[(1S)-2-{4-[3-(2-butoxyethyl)-2-oxo-1,3-benzoxazol-5-yl]phenyl}-1-cyanoethyl]-6-methoxy-1,4-oxazocane-2-carboxamide] | > 15 nM | > 2.5 nM
